The supplement of paper PMC10307832

What was measured:
Test in all cases: relative viability (nuclei count vs DMSO), 5 days (fraction); higher = more cells survive
Entinostat + Pemetrexed = compound: Nc1ccccc1NC(=O)c1ccc(CNC(=O)OCc2cccnc2)cc1 [Entinostat] + Nc1nc2[nH]cc(CCc3ccc(C(=O)N[C@@H](CCC(=O)O)C(=O)O)cc3)c2c(=O)[nH]1 [Pemetrexed] (partner 0.2 µM)
In short: (§1)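 Relative viability equals treated-well nuclei counts divided by vehicle-well nuclei counts. Counts came from 4× images of lung cancer cell lines grown in 1536-well plates for 5 days after pin-tool dosing on the day after seeding. Dosing used one drug alone or a fixed anchor-drug dose plus five library-drug doses (not always all listed) in √10 steps, and values are medians of duplicate plates.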

SGI-1776 + Palbociclib = compound: CN1CCC(CNc2ccc3ncc(-c4cccc(OC(F)(F)F)c4)n3n2)CC1 [SGI-1776] + CC(=O)c1c(C)c2cnc(Nc3ccc(N4CCNCC4)cn3)nc2n(C2CCCC2)c1=O [Palbociclib] (partner 0.5 µM)
In short: as §1

[1] = compound: C1COCCN1C2=NC(=NC3=C2OC4=C3C=CC=N4)C5=CC(=CC=C5)NC(=O)C6=CN=C(C=C6)N + C[C@]1(O)C[C@@H](c2nc(-c3ccc4ccc(-c5ccccc5)nc4c3)c3c(N)nccn32)C1 [Linsitinib] (partner 1 µM)
In short: as §1

[2] = compound: C1COCCN1C2=NC(=NC3=C2OC4=C3C=CC=N4)C5=CC(=CC=C5)NC(=O)C6=CN=C(C=C6)N + CC(C)C[C@H](NC(=O)[C@H](Cc1ccccc1)NC(=O)c1cnccn1)B(O)O [Bortezomib] (partner 0.002 µM)
In short: as §1

Cell Line | relative viability (Entinostat + Pemetrexed; first compound 0.02 µM) | relative viability (Entinostat + Pemetrexed; first compound 0.06325 µM) | relative viability (Entinostat + Pemetrexed; first compound 0.2 µM) | relative viability (Entinostat + Pemetrexed; first compound 0.6325 µM) | relative viability (Entinostat + Pemetrexed; first compound 2 µM) | relative viability (SGI-1776 + Palbociclib; first compound 0.08 µM) | relative viability (SGI-1776 + Palbociclib; first compound 0.8 µM) | relative viability (SGI-1776 + Palbociclib; first compound 2.53 µM) | relative viability (SGI-1776 + Palbociclib; first compound 8 µM) | relative viability ([1]; first compound 0.02 µM) | relative viability ([1]; first compound 0.06325 µM) | relative viability ([1]; first compound 0.2 µM) | relative viability ([1]; first compound 0.6325 µM) | relative viability ([1]; first compound 2 µM) | relative viability ([2]; first compound 0.02 µM) | relative viability ([2]; first compound 0.06325 µM) | relative viability ([2]; first compound 0.2 µM) | relative viability ([2]; first compound 0.6325 µM) | relative viability ([2]; first compound 2 µM)
NCI-H1792 | 0.844 | 0.765 | 0.896 | 0.374 | 0.191 | 0.659 | 0.626 | 0.59 | 0.615 | 0.608 | 0.508 | 0.565 | 0.257 | 0.468 | 1.2 | 0.905 | 0.994 | 0.86 | 0.374
NCI-H1755 | 0.422 | 0.437 | 0.407 | 0.358 | 0.374 | 0.461 | 0.444 | 0.438 | 0.438 | 1.02 | 1.01 | 0.992 | 0.94 | 0.509 | 0.947 | 1.08 | 0.904 | 0.918 | 0.613
EPLC-272H | 0.391 | 0.322 | 0.304 | 0.244 | 0.248 | 0.32 | 0.336 | 0.354 | 0.226 | 1.27 | 1.07 | 1.12 | 1.01 | 0.721 | 0.965 | 0.994 | 0.816 | 0.931 | 0.558
NCI-H2228 | 0.316 | 0.399 | 0.323 | 0.271 | 0.172 | 0.787 | 1.1 | 0.715 | 0.537 | 0.588 | 0.481 | 0.737 | 0.728 | 0.524 | 1.25 | 1.1 | 0.975 | 0.84 | 0.488
